Data reported in ChEMBL document CHEMBL1201862, “PubChem BioAssay data set” (2004).
The source made the active and inactive calls.

Key:
[1] = molecular target: Prothrombin (Bos taurus, UniProt P00735); assay: thrombin protease inhibitors – biochemical, fluorescence polarization, uHTS hits, dose response (AID 602369); assay type: functional
[2] = molecular target: 26S proteasome non-ATPase regulatory subunit 14 (Homo sapiens, UniProt O00487); assay: inhibition of proteasome subunit RPN11 – biochemical, fluorescence polarization, uHTS hits, confirmation (AID 602368); assay type: functional
[3] = molecular target: 72 kDa type IV collagenase (Homo sapiens, UniProt P08253); assay: Dose Response validation of uHTS RPN11 inhibitor hits using a MMP-2 Fluorescence assay.; assay type: functional
[4] = molecular target: T1, Corticotropin-releasing factor receptor 2/Corticotropin-releasing factor-binding protein (Homo sapiens, UniProt P24387+Q13324); assay: Dose Response confirmation of uHTS hits for small molecule antagonists of the CRF-binding protein and CRF-R2 receptor complex.; assay type: functional; conditions: read-out: IC50_Mean
T1 sequence (Q13324 whole entry): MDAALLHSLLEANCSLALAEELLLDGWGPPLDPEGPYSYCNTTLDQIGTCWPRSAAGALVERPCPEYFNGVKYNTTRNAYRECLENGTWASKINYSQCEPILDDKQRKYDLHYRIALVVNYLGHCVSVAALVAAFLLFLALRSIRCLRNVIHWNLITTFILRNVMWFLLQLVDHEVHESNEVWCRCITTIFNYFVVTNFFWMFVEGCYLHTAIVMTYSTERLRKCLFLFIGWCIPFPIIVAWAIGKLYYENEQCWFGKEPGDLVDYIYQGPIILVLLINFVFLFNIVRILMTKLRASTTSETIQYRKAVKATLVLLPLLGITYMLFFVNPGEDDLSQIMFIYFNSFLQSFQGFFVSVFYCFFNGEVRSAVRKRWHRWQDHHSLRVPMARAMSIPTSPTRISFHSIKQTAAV
T1 sequence (P24387 whole entry): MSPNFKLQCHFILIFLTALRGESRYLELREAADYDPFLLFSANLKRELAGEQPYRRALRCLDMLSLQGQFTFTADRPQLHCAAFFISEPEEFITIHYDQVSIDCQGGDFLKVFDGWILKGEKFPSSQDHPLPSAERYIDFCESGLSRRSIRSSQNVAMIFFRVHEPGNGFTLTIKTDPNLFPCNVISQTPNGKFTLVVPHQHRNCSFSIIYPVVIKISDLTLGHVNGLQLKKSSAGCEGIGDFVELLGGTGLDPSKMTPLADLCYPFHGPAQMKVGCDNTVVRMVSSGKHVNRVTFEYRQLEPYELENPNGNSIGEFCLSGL

[5] = molecular target: T1, Corticotropin-releasing factor receptor 2/Corticotropin-releasing factor-binding protein; assay: activators of CRF receptor 2 with binding protein – uHTS hits, confirmation (AID 602473); assay type: functional; conditions: read-out: EC50_Mean
[6] = blockers of CRF-binding protein–CRF-R2 complex – cell-based, uHTS hits, 384-well, dose response (AID 651639); assay type: functional, Homo sapiens; conditions: read-out: IC50_Mean
[7] = cells; assay type: functional, cell-based
[8] = tested on: Vero; assay: cells; assay type: functional, cell-based; conditions: Chlorocebus sabaeus
[9] = molecular target: Glucose-6-phosphate 1-dehydrogenase (Homo sapiens, UniProt P11413); assay: inhibition of Homo sapiens G6PD, dose series – biochemical, fluorescence, selectivity assay for P. falciparum G6PD inhibitor project, dose response (AID 504792); assay type: functional
[10] = cells; assay type: functional, cell-based; remark: listed apart in the source
[11] = molecular target: Photoreceptor-specific nuclear receptor (Homo sapiens, UniProt Q9Y5X4); assay type: functional, cell-based;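 also: CHO-S cells with Gal4-NCOR and VP16-NR2E3 two-hybrid luciferase reporter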
[12] = molecular target: Genome polyprotein (dengue virus type 2, UniProt P29990); assay: flavivirus cap methylation enzyme inhibition – biochemical, confirmation dose response, primary screen (AID 588689); assay type: functional
[13] = molecular target: T2, Calpain-2 catalytic subunit (Sus scrofa, UniProt P43367); assay: m-calpain protease blockers, concentration series – biochemical, fluorogenic peptide substrate, dose response (AID 1420); assay type: functional
T2 sequence (P43367 whole entry): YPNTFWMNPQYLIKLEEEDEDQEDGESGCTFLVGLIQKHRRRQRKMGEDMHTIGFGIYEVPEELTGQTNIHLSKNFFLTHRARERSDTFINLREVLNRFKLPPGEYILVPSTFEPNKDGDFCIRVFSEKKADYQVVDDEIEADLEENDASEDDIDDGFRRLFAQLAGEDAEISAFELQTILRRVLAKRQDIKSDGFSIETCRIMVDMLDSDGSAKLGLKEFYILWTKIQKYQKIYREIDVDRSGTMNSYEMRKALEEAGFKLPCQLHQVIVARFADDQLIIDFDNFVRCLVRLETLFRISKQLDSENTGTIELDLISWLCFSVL

[14] = molecular target: T3, Methionyl-tRNA synthetase, putative (Trypanosoma brucei brucei, UniProt Q38C91); assay type: functional, Trypanosoma brucei brucei strain 927/4 GUTat10.1
T3 sequence (Q38C91 whole entry): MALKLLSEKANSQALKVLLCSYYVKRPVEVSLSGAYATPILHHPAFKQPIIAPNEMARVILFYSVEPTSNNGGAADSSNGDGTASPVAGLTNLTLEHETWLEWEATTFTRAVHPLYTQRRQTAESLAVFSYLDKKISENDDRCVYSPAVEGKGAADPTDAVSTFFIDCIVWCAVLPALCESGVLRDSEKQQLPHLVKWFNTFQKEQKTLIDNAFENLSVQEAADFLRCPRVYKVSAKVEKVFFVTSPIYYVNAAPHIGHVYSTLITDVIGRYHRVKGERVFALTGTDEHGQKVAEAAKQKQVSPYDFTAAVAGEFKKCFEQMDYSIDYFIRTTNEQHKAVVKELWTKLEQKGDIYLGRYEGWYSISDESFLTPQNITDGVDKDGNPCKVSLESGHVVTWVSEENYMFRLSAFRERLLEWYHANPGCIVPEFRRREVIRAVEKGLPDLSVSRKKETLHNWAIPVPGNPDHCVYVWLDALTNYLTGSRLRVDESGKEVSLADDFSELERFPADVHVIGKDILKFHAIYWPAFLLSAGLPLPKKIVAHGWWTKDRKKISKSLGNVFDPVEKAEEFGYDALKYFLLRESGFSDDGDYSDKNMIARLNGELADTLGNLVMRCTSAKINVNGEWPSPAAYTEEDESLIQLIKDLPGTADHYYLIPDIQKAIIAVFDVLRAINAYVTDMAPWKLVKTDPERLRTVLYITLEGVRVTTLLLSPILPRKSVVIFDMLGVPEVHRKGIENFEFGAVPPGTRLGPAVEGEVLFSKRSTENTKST

[15] = Counterscreen for inhibitors of Trypanosoma brucei methionyl tRNA synthetase (MetRS): Luminescence-based cell-based high throughput dose response assay to identify compounds that are cytotoxic to Jurkat human T lymphocyte cells.; assay type: functional
[16] = molecular target: T3, Methionyl-tRNA synthetase, putative; assay type: functional, Trypanosoma brucei brucei strain 927/4 GUTat10.1; remark: listed apart in the source
[17] = molecular target: Protein Wnt-3a (Mus musculus, UniProt P27467); assay: antagonism of Wnt3a pathway luciferase reporter – Wnt-LIGHT cells, luminescence, selectivity assay for Gli-SUFU antagonist project, dose response (AID 651570); assay type: functional; conditions: read-out: IC50_Mean;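 also: Wnt-LIGHT reporter cells stimulated with conditioned medium from Wnt3a-producing cells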
[18] = Trypanosoma cruzi growth suppression in host cells – NIH3T3 host cells, beta-gal luminescence, confirmation (AID 2044); assay type: functional, cell-based;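 also: intracellular parasites grown in NIH/3T3 mouse fibroblasts as host cells; luminescent beta-galactosidase reporter signal from transgenic T. cruzi replicating inside host cells; inhibitors lower the luminescence signal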
[19] = NIH3T3 cell viability loss – ATP luminescence, mouse fibroblasts, counter-screen, dose response (AID 2010); assay type: functional, cell-based;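 also: cells exposed to compound for about 90 hours before reading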
[20] = molecular target: Beta Lactamase (Pseudomonas aeruginosa, UniProt Q932Y6); assay: BLA reporter interference, concentration series – BLA reporter cells, FRET fluorescence, artefact control for TLR9-MyD88 binding inhibitor project, dose response (AID 588341); assay type: cell-based;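 also: cell based assay in CHO-K1 cells stably expressing beta-lactamase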
[21] = tested on: H9c2; assay: cells; assay type: functional, cell-based; conditions: Rattus norvegicus, H9c2, Myocardium;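 also: confirmatory concentration-response retest of ultra-high-throughput screening hits for modulation of myocardial damage; cell death induced by hydrogen peroxide oxidative stress; compound pretreatment for 60 min then peroxide exposure for 2 h; potency is for protecting the cells against peroxide damage rather than for killing them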
[22] = tested on: CHO; assay: CHO cell viability loss, potency – luminescence, cytotoxicity control for TLR9-MyD88 binding inhibitor project, dose response (AID 588339); assay type: functional, cell-based, hamster; conditions: Cricetulus griseus;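 also: CHO cells stably coexpressing TLR9 and MyD88 fusions from primary screen; compound exposure lasted 48 hours before viability readout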

Beta Lactamase, sequence (Q932Y6 whole entry): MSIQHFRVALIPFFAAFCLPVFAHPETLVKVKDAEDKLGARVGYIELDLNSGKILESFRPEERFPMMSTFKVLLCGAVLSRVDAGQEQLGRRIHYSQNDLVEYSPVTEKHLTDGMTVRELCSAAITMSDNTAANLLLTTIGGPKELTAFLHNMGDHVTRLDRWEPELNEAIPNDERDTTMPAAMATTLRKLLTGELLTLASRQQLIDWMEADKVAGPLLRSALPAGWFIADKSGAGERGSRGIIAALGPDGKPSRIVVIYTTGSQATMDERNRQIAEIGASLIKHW
72 kDa type IV collagenase, sequence (P08253 whole entry): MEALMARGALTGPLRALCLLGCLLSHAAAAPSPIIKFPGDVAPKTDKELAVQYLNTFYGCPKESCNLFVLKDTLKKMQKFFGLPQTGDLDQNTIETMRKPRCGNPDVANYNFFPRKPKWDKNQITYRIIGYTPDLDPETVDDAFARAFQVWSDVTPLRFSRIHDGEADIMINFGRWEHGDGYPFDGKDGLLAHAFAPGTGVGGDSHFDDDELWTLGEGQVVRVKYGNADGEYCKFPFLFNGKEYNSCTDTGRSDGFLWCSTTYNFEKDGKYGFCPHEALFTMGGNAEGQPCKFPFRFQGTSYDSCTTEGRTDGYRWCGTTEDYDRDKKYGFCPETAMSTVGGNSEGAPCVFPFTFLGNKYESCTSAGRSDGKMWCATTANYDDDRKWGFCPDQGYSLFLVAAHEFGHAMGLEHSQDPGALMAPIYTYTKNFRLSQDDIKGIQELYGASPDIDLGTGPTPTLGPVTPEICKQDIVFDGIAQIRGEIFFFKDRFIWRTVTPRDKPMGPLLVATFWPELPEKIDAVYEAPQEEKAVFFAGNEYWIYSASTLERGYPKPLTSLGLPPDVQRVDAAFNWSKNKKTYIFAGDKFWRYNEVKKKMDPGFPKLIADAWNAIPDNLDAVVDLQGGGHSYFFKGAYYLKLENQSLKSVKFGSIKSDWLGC
Protein Wnt-3a, sequence (P27467 whole entry): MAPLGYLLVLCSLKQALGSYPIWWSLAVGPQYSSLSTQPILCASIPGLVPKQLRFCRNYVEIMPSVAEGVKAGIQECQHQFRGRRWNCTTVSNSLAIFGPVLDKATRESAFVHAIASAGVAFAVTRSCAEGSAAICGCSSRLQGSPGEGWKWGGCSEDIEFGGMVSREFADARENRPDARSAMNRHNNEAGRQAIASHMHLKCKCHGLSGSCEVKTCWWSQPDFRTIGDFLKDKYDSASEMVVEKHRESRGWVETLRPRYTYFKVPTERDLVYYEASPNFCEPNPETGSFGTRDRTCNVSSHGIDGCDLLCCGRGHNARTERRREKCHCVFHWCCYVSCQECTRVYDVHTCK
Glucose-6-phosphate 1-dehydrogenase, sequence (P11413 whole entry): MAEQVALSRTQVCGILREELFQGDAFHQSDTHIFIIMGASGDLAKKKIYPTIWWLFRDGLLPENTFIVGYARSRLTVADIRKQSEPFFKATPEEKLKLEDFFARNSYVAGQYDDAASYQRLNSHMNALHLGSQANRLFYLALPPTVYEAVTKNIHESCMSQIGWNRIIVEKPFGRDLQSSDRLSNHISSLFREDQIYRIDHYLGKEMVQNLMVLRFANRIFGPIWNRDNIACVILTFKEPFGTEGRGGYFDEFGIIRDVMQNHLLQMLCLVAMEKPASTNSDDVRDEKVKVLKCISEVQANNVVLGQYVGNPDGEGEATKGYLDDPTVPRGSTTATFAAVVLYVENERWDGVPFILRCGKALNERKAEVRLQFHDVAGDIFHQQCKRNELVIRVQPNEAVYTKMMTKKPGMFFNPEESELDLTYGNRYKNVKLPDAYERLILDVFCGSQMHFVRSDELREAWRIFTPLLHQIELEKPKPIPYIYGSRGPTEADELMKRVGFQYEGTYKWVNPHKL
26S proteasome non-ATPase regulatory subunit 14, sequence (O00487 whole entry): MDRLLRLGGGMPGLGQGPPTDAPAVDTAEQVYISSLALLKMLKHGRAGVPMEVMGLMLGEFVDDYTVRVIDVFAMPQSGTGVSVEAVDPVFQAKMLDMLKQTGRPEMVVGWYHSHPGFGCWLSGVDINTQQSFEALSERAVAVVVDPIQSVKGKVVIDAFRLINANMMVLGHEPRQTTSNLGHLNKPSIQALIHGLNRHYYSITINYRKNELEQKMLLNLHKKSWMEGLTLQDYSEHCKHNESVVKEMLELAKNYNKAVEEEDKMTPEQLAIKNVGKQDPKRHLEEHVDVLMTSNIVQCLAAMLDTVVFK
Genome polyprotein, sequence (P29990 2492-3391 limits assumed): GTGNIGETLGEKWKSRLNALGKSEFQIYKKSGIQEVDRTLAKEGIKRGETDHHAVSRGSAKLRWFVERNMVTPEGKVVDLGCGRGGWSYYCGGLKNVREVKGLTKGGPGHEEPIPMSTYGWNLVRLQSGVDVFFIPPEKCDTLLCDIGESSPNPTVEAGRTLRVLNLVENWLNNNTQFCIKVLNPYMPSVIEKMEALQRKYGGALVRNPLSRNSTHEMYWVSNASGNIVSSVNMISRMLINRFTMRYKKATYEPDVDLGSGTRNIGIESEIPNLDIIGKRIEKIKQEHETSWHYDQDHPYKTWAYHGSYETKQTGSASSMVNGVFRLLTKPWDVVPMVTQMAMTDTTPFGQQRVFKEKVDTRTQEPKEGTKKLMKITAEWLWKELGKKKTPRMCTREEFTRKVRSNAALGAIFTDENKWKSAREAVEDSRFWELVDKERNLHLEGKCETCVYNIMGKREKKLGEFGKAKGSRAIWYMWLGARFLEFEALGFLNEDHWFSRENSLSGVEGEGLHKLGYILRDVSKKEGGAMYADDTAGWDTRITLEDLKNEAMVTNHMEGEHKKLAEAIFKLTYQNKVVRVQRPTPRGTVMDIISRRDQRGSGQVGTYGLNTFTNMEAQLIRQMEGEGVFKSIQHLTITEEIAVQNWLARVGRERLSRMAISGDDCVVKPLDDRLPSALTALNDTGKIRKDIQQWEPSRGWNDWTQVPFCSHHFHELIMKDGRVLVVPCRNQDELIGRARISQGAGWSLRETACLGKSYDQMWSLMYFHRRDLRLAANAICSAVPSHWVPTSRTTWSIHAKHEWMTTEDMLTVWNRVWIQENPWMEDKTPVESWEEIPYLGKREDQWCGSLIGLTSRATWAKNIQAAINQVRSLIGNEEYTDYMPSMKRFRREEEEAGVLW
Photoreceptor-specific nuclear receptor, sequence (Q9Y5X4 whole entry, the tested form may be a part): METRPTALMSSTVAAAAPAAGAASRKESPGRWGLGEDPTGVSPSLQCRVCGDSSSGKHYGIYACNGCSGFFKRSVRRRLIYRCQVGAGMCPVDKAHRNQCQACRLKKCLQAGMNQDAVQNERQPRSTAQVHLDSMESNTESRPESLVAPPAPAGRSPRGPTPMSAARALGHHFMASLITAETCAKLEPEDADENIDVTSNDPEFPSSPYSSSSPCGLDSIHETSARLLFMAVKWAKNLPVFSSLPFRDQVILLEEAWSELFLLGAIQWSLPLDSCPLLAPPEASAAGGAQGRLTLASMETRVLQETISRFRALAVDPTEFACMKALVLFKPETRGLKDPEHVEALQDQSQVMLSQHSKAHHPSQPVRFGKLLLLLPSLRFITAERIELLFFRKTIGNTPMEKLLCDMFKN

O=C(NCc1ccc(F)cc1)c1cccc2c1C(=O)c1ccc(N3CCOCC3)cc1S2(=O)=O
IC50 [1]: 24.1 µM (active)
IC50 [2]: 16.6 µM (active)
IC50 [3]: > 100 µM (inactive)

Cc1noc(C)c1CSCc1ccc(Cl)cc1
IC50 [4]: 35.6 µM (active)
EC50 [5]: > 53 µM (inactive)
IC50 [6]: > 20 µM (inactive)

O=C(COc1cccc2ccccc12)Nc1ccc(Cl)cc1C(=O)O
EC50 [7]: > 350 µM (not active)
IC50 [8]: > 25 µM (active)
IC50 [9]: 52.6 µM (inactive)
EC50 [10]: > 350 µM (not active)
IC50 [11]: 5.31 µM (active)
IC50 [12]: 37.7 µM (active)

Cc1cc(C)c(NC(=O)/C(=C/c2ccccc2)c2ccccc2)c(C)c1
IC50 [13]: > 50 µM (not active)
IC50 [4]: 10.4 µM (active)
EC50 [5]: > 53 µM (inactive)
IC50 [6]: > 20 µM (inactive)

O=C(Nc1ccc(C(=O)O)cc1)/C(=C\C=C\c1ccccc1)NC(=O)c1ccc(Br)cc1
IC50 [14]: 11.5 µM (inactive)
IC50 [15]: 83.3 µM (inactive)
IC50 [16]: 29.6 µM (inactive)

CCOc1ccc(-n2c(-c3ccc(Cl)cc3)c[n+]3c2SCC3)cc1
IC50 [17]: 1.33 µM (active)
EC50 [18]: 0.86 µM (active)
EC50 [19]: 5.18 µM (active)

O=C(Cc1ccc(Br)cc1)Nc1cccc(S(=O)(=O)N2CCOCC2)c1
IC50 [14]: 7 µM (active)
IC50 [15]: 82.3 µM (inactive)
IC50 [16]: 3.47 µM (active)

COc1cc2oc3cc(C#Cc4ccc(N)cc4)ccc3c(=O)c2cc1OC
IC50 [20]: 3.6 µM (active)
IC50 [21]: > 79 µM (inactive)
IC50 [22]: > 49.7 µM (inactive)
